According to patent US20230227505A1, “IDENTIFICATION AND APPLICATION OF ALV-J MHC-B2 R[…] PEPTIDE” (South China Agricultural University, priority 2022, published 2023):

Tested on: spleen lymphocytes of B2-haplotype chicken infected with ALV-J
Test: IFN-γ ELISpot assay detecting immunogenicity of candidate peptides
Format: cell-based
Settings: peptide 10 μg/mL as stimulant, spleen lymphocytes of B2-haplotype chicken infected for 28 d; for IFN-γ ELISpot spots generated compared with the negative control group: 24-48 h; for IFN-γ ELISpot spots, significance versus negative control (immunogenic T cell epitope): P<0.05, three independent replications
Procedure: The B2-haplotype chicken infected for 28 d (day) in 2.1 is taken, and the spleen lymphocytes of the chicken are isolated according to the kit instructions of the chicken organ tissue mononuclear cell isolation solution, and an ELISpot assay is performed to detect the immunogenicity of candidate peptide epitopes. The specific steps are as follows:
(1) PVDF 96-well plate activation: 15 μL 35% ethanol is added to each well for reaction for less than 1 min, and then the wells are washed five times with sterile water.
(2) Antibody coating: the anti-chicken IFN-γ is diluted to 15 μg/mL, and 100 μL of that is added to each well, and the mixture is incubated at 4° C. overnight.
(3) Blocking: the coating solution is discarded, followed by washing 5 times with DPBS, and the plate is dried on the sterilized absorbent paper. RMPI 1640 medium containing 10% FBS is added to PVDF 96-well plate at 200 μL/well and the reaction is blocked at room temperature for 30 min.
(4) Stimulation: the blocking solution is discarded and 100 μL of prepared lymphocyte suspension at the concentration of 5*10^6 cells/mL is added to each well. At the same time, 50 μL diluted antigenic peptide is added to the experimental group at the final concentration of 10 μg/mL, PMA at the final concentration of 10 μg/mL is added to the positive control group, and no irritant is added to the negative control group. After all the samples are added, PVDF 96-well plate is placed in CO2 incubator at 37° C. for 24-48 h.
(5) Incubation of secondary antibody: after the culture, the cells are shaken off and the plate is washed five times with DPBS. Then 100 μL biotinylated secondary antibody with a concentration of 1 μg/mL is added to each well and the plate is incubated for 2 h at room temperature.
(6) HRP incubation: the secondary antibody solution is discarded and washed with DPBS for 5 times. Then 100 μL streptavidin-labeled HRP is added to the well and incubated at room temperature for 1 h.
(7) Color development: the HRP incubation solution is discarded and the plate is washed with DPBS for 5 times. Then 100 μL TMB color-developing substrate is added to each well followed by incubation at room temperature or 37° C. for 15-30 min. When obvious spots appeared in the positive control group, the color-developing solution could be discarded. the color development is stopped with pure water and the plate is read after air drying.

| Sequence | IFN-γ ELISpot spots generated compared with the negative control group | IFN-γ ELISpot spots, significance versus negative control (immunogenic T cell epitope) |
| --- | --- | --- |
| FVDFANRLI (ALV-J-59) | could generate spots | significantly produce more spots |
| SALQAFREV (ALV-J-61) | could generate spots | significantly produce more spots |
| TVDTASSAI (ALV-J-52) | could generate spots | significantly produce more spots |
